Usually EC50 stands for the concentration at which the effect is half-maximal. A low value points to a more potent agent.

For three compounds, Activity and EC50 results are on record in ChEMBL document CHEMBL1142753, “Bioactive fluorinated derivative of amphotericin B” (Bioorg Med Chem Lett, 2005).

The test system of one assay is Aspergillus niger. In words: Inhibitory effect of Amphotericin required for antifungal activity against Aspergillus niger. It is filed as functional.
The nature of assay [1]: Effective concentration of Amphotericin required for hemolytic activity against 1% human erythrocytes. It is filed as functional.

As to `CC1OC(O[C@H]2/C=C/C=C/C=C/C=C/C=C/C=C/C=C/[C@H](C)[C@@H](O)[C@@H](C)[C@H](C)OC(=O)C[C@H](O)C[C@H](O)CC[C@@H](O)[C@H](O)C[C@H](O)C[C@]3(O)C[C@H](O)[C@@H](C(=O)O)[C@H](C2)O3)C(O)C(NCc2ccc(F)cc2)C1O` (stereo partly specified), in the assay on Aspergillus niger, the Activity is more than 50 µg. The EC50 in assay [1] was 2600 nM.
As to `CC1OC(O[C@H]2/C=C/C=C/C=C/C=C/C=C/C=C/C=C/[C@H](C)[C@@H](O)[C@@H](C)[C@H](C)OC(=O)C[C@H](O)C[C@H](O)CC[C@@H](O)[C@H](O)C[C@H](O)C[C@@]3(O)O[C@@H](C2)[C@H](C(=O)O)[C@@H](O)[C@@H]3F)C(O)C(N)C1O` (stereo partly specified), the Activity in the assay on Aspergillus niger is 10 µg. This compound came in with an EC50 in assay [1] of 1300 nM.
The compound `C[C@@H]1[C@H](O)[C@@H](C)/C=C/C=C/C=C/C=C/C=C/C=C/C=C/[C@H](O[C@@H]2O[C@H](C)[C@@H](O)[C@H](N)[C@@H]2O)C[C@@H]2O[C@](O)(C[C@@H](O)C[C@@H](O)[C@H](O)CC[C@@H](O)C[C@@H](O)CC(=O)O[C@H]1C)C[C@H](O)[C@H]2C(=O)O` [AMPHOTERICIN B] displayed an Activity in the assay on Aspergillus niger of 10 µg. The midpoint of the response in assay [1], the EC50, lay at 1400 nM.
